Source: patent US9221870B2, “Crystal form of an organic compound and process for the preparation thereof” (Richter Gedeon Nyrt., priority 2009, dated 2015)
Converted amounts (≈) assume the structure as drawn.

Experiments:
Format in all cases: physicochemical
[1] = Fast stability test (storage on a plate at 40° C. in air, impurity by HPLC); details: for Impurity / N-demethyl-derivative of CDB-4124: HPLC; for Impurity, Σ (increase Day 0 to Day 10) / N-demethyl-derivative of CDB-4124, Σ (increase Day 0 to Day 10): Σ over 10 days, in the presence of air
Procedure: Amorphous and crystalline forms were stored on a plate at 40° C. in the presence of air for 10 days. Impurity was measured at different times using an HPLC equipment. […]

[2] = Solubility at 25° C. in solvent (MeOH)
Text: Form I is a monotropic modification of CDB-4124 such as Form II. […] Furthermore, Form I can be transformed into Form II via crystallization from different medium.

[3] = Water adsorption by dynamic vapour sorption (DVS); details: 25° C., 0%-95% relative humidity, adsorption-desorption
Procedure: Water adsorption properties of the crystalline Form II of CDB-4124 were measured by dynamic vapour sorption technique (DVS). […]

SMILES	Impurity ([1]; Day 0, in the presence of air) [%]	N-demethyl-derivative of CDB-4124 ([1]; Day 0, in the presence of air) [%]	Impurity ([1]; Day 1, in the presence of air) [%]	N-demethyl-derivative of CDB-4124 ([1]; Day 1, in the presence of air) [%]	Impurity ([1]; Day 2, in the presence of air) [%]	N-demethyl-derivative of CDB-4124 ([1]; Day 2, in the presence of air) [%]	Impurity ([1]; Day 6, in the presence of air) [%]	N-demethyl-derivative of CDB-4124 ([1]; Day 6, in the presence of air) [%]	Impurity ([1]; Day 10, in the presence of air) [%]	N-demethyl-derivative of CDB-4124 ([1]; Day 10, in the presence of air) [%]	Impurity, Σ (increase Day 0 to Day 10) [1] [%]	N-demethyl-derivative of CDB-4124, Σ (increase Day 0 to Day 10) [1] [%]	solubility [2] [mg/mL]	change of mass as the degree of humidity was increased [3]
COCC(=O)[C@@]1(OC(C)=O)CC[C@H]2[C@@H]3CCC4=CC(=O)CCC4=C3[C@@H](c3ccc(N(C)C)cc3)C[C@@]21C [Form II, 17α-acetoxy-21-methoxy-11β-[4-N,N-dimethylaminophenyl]-19-norpregna-4,9-diene-3,20-dione]	0.14	0.02	0.14	0.02	0.14	0.02	0.15	0.02	0.17	0.03	0.03	0.01	23 (≈ 45.5 mM)	barely changed
COCC(=O)[C@@]1(OC(C)=O)CC[C@H]2[C@@H]3CCC4=CC(=O)CCC4=C3[C@@H](c3ccc(N(C)C)cc3)C[C@@]21C [Form I, 17α-acetoxy-21-methoxy-11β-[4-N,N-dimethylaminophenyl]-19-norpregna-4,9-diene-3,20-dione, reference compound]													500 (≈ 989 mM)	
COCC(=O)[C@@]1(OC(C)=O)CC[C@H]2[C@@H]3CCC4=CC(=O)CCC4=C3[C@@H](c3ccc(N(C)C)cc3)C[C@@]21C [Amorphous form, 17α-acetoxy-21-methoxy-11β-[4-N,N-dimethylaminophenyl]-19-norpregna-4,9-diene-3,20-dione, reference compound]	0.87	0.15	0.97	0.21	1.03	0.25	1.63	0.55	1.97	0.73	1.1	0.58		
